Experimental data as given in paper PMC5816602, “Optimized peptide based inhibitors targeting the dihydrofolate reductase pathway in cancer” (Scientific Reports, 2018).
Converted amounts (≈) assume the structure as drawn. Like-named read-outs stand apart in the source and are kept apart here. Residues, ends and D or L forms follow the SMILES beside them.

Assays:
hDHFR [1] = target: T1, hDHFR (Homo sapiens, UniProt P00374); experiment: In vitro DHFR inhibition assay (DHFR assay kit, absorbance at 340 nm); format: biochemical
T1 construct: purchased Sigma CS0340
T1 sequence (P00374 1-187): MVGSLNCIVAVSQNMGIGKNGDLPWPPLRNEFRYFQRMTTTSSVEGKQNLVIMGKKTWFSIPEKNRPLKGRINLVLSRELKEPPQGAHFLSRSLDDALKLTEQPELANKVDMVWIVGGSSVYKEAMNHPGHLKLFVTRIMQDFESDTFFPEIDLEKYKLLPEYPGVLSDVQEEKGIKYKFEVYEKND
Description: The activity of the designed peptides against hDHFR was evaluated by measuring the conversion of dihydrofolic acid to tetrahydrofolic acid in the presence of the test peptide using […].
The dihydrofolate reductase inhibition assay was performed using DHFR assay kit (Sigma product code CS0340) according to the reported protocol. All the dilutions were made in assay buffer, pH 7.5. 10 mM stock solutions of dihydrofolic acid and NADPH in assay buffer were prepared. Stock solutions of the test peptides with different concentrations were prepared in DMSO, and an amount of 20 μL of each was taken to attain final concentration of 10^−9, 10^−8, 10^−7, 10^−6, 10^−5, and 10^−4 M in the respective wells of 96-well plate containing assay buffer. An amount of 0.1 unit of DHFR as supplied in the kit was diluted, and an amount of 20 μL of its 3 × 10^−3 unit was used in each reaction. Each well of the 96-well plate was charged with 157.8 μL of assay buffer. […] Percentage inhibition of enzymatic activity was calculated after nullifying the effects of NADPH, folate, and solvent. IC50 was calculated by plotting a graph between percentage inhibition and the corresponding concentration of the peptide.

A549 cells = settings: 48 hrs, MTT; for effect on cell viability of A549 cells: increasing concentrations
Description: Cell viability was measured using 3-(4,5-Dimethylthiazol- 2-yl)-2,5- Diphenyltetrazolium Bromide (MTT) assay. […] Following that, 20 µL of 5 mg/ml of MTT reagent was added in a total volume of 200 µl and incubated for 2 hours. The culture media was removed and the formazan crystals so formed were dissolved in 200 µl of dimethyl sulfoxide (DMSO). Absorbance was measured at 570 nm (with 660 nm reference wavelength) using Tecan plate reader (Infinite M200 Pro). Each individual experiment was repeated at least thrice. Relative cell viability was expressed as a percentage relative to untreated control cells.

hDHFR [2] = target: T1, hDHFR; experiment: Isothermal titration calorimetry (ITC); format: binding; settings: Table 2, read-out: Ka (converted)
Text: The binding of peptide 2 with hDHFR was further determined using isothermal titration calorimetry (ITC). ITC is considered as one of the most precise techniques to measure the affinity between a macromolecule and a small molecule. Since it measures the heat absorbed or released during complexation, it allows simultaneous determination of all binding parameters with respect to the binding constant (K), enthalpy (ΔH), and entropy (ΔS) in a single experiment. The solution of peptide 2 (in the syringe) was injected into the DHFR enzyme solution taken in the sample cell. In one experiment, 20 consecutive injections of 2 μL of 250 μM peptide were given to the sample cell. Upon each titration, the amount of heat released or absorbed was measured and used to determine the association constant (Ka), binding enthalpy (ΔH), and entropy (ΔS).

[3] = six concentrations 10^−4 to 10^−9 M, assay buffer pH 7.5, read-out: IC50 against hDHFR

IC50 (hDHFR [1]; [3]) [µM] | SMILES | IC50 (hDHFR [1]) [µM] | further results
 | CSCC[C@H](NC(=O)[C@H](Cc1ccccc1)NC(=O)[C@@H](N)Cc1ccc(O)cc1)C(=O)N[C@@H](CC(C)C)C(=O)NCC(=O)O [Peptide 7, Tyr-Phe-Met-Leu-Gly] (H-YFMLG-OH) | > 100 | 
> 90 | CSCC[C@H](N)C(=O)N[C@@H](Cc1ccccc1)C(=O)N[C@@H](Cc1ccc(O)cc1)C(=O)NCC(=O)O [Peptide 4, Met-Phe-Tyr-Gly] (H-MFYG-OH; N-terminus assumed) |  | effect on cell viability of A549 cells (A549 cells): did not affect their cell viability
5.6 | CSCC[C@H](NC(=O)[C@H](Cc1ccc(O)cc1)NC(=O)[C@@H](N)Cc1ccccc1)C(=O)NCC(=O)O [Peptide 3, Phe-Tyr-Met-Gly] (H-FYMG-OH; N-terminus assumed) |  | effect on cell viability of A549 cells (A549 cells): did not affect their cell viability
> 100 | CSCC[C@H](N)C(=O)N[C@@H](Cc1ccccc1)C(=O)N[C@@H](Cc1ccc(O)cc1)C(=O)NCC(=O)N[C@@H](CC(C)C)C(=O)O [Peptide 10, Met-Phe-Tyr-Gly-Leu] (H-MFYGL-OH) |  | 
8 | CSCC[C@H](N)C(=O)N[C@@H](Cc1ccc(O)cc1)C(=O)N[C@@H](CO)C(=O)N[C@@H](CC(C)C)C(=O)O [Peptide 6, Met-Tyr-Ser-Leu] (H-MYSL-OH; N-terminus assumed) |  | 
> 100 | CSCC[C@H](NC(=O)[C@@H](N)Cc1ccccc1)C(=O)N[C@@H](Cc1ccc(O)cc1)C(=O)N[C@@H](CC(C)C)C(=O)NCC(=O)O [Peptide 8, Phe-Met-Tyr-Leu-Gly] (H-FMYLG-OH) |  | 
 | CSCC[C@H](NC(=O)[C@H](Cc1ccccc1)NC(=O)[C@H](CO)NC(=O)[C@@H](N)Cc1ccc(O)cc1)C(=O)N[C@@H](CC(C)C)C(=O)O [Peptide 11, Tyr-Ser-Phe-Met-Leu] (H-YSFML-OH) | 0.08 | 
 | CSCC[C@H](NC(=O)[C@H](Cc1ccccc1)NC(=O)[C@@H](N)Cc1ccc(O)cc1)C(=O)N[C@@H](CC(C)C)C(=O)O [Peptide 1, Tyr-Phe-Met-Leu] (H-YFML-OH; N-terminus assumed) | > 100 | 
 | CSCC[C@H](NC(=O)[C@H](Cc1ccc(O)cc1)NC(=O)[C@@H](N)Cc1ccccc1)C(=O)NCC(=O)N[C@@H](CC(C)C)C(=O)O [Peptide 9, Phe-Tyr-Met-Gly-Leu] (H-FYMGL-OH) | > 80 | 
 | CSCC[C@H](NC(=O)[C@@H](N)Cc1ccc(O)cc1)C(=O)N[C@@H](Cc1ccccc1)C(=O)N[C@@H](CO)C(=O)N[C@@H](CC(C)C)C(=O)O [Peptide 12, Tyr-Met-Phe-Ser-Leu] (H-YMFSL-OH) | > 90 | 
 | CSCC[C@H](NC(=O)[C@@H](N)Cc1ccc(O)cc1)C(=O)N[C@@H](CO)C(=O)N[C@@H](CC(C)C)C(=O)O [Peptide 5, Tyr-Met-Ser-Leu] (H-YMSL-OH; N-terminus assumed) | > 100 | 

SMILES | IC50 (hDHFR [1]; [3]) [µM] | IC50 (hDHFR [1]) [µM] | further results
CSCC[C@H](NC(=O)[C@@H](N)Cc1ccccc1)C(=O)N[C@@H](Cc1ccc(O)cc1)C(=O)N[C@@H](CC(C)C)C(=O)O [Peptide 2, Phe-Met-Tyr-Leu] (H-FMYL-OH) | 0.13 |  | Kd (hDHFR [2]): 0.909 µM; IC50 in A549 cells (A549 cells): 47 µg/mL (≈ 82.1 µM); IC50 (A549 cells; read-out: IC50 in A549 cells): 82 µM
